Experiments:
CDK12 = CDK12 (Homo sapiens, UniProt Q9NYV4); test: Western blot degradation of CDK12 (Example 3); assay type: cell-based; design: degradation of CDK12/13 protein in leukemia cells KASUMI-1, MV4-11, and Jurkat; endogenous in cells; settings: DC50 classes; cell line not given; read-out: CDK12 degradation Activity
CDK13 = CDK13 (Homo sapiens, UniProt Q14004); test: Western blot degradation of CDK13 (Example 3); assay type: cell-based; design: degradation of CDK12/13 protein in leukemia cells KASUMI-1, MV4-11, and Jurkat; endogenous in cells; settings: DC50 classes; cell line not given; read-out: CDK13 degradation Activity
Sequence of CDK13 (Q14004 whole entry): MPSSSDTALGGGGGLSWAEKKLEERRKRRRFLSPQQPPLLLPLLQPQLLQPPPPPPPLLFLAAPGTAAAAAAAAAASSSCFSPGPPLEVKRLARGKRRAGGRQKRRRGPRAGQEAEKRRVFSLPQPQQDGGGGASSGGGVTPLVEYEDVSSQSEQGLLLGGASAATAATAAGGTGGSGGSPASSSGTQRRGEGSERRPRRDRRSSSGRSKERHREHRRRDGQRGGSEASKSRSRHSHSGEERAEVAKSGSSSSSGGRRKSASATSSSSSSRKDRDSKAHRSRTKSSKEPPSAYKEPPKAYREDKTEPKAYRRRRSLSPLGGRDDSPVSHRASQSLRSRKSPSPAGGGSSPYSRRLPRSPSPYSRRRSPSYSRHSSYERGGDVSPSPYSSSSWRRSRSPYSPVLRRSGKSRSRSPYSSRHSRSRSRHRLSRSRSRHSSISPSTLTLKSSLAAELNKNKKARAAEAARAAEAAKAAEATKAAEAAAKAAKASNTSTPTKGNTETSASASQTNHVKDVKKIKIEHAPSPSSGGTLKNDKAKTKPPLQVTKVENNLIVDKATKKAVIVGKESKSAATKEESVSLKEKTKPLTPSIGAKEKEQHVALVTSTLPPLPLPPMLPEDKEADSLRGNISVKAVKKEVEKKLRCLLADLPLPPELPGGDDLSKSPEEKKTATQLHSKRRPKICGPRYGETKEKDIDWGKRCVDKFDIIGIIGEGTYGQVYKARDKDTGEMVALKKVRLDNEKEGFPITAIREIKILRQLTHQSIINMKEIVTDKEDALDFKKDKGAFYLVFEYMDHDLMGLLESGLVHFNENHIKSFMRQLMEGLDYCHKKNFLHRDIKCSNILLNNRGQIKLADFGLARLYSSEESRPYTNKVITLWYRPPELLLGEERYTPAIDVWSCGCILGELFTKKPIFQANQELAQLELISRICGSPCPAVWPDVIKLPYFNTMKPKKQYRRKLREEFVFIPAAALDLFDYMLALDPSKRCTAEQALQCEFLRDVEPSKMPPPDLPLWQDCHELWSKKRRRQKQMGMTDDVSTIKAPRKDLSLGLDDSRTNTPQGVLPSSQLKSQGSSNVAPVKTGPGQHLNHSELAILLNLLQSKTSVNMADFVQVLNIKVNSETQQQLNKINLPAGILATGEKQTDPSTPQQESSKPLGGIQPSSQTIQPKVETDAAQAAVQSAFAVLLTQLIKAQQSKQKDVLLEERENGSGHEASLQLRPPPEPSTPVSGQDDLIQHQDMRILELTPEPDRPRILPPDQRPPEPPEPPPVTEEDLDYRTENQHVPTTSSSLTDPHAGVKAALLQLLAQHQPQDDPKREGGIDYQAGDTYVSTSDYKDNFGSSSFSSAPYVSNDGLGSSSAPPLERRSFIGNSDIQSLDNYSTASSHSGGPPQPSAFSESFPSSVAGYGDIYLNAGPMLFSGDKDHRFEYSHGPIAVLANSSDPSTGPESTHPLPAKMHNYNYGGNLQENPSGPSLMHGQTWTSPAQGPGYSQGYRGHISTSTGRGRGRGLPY
Sequence of CDK13 (O75909 whole entry partner): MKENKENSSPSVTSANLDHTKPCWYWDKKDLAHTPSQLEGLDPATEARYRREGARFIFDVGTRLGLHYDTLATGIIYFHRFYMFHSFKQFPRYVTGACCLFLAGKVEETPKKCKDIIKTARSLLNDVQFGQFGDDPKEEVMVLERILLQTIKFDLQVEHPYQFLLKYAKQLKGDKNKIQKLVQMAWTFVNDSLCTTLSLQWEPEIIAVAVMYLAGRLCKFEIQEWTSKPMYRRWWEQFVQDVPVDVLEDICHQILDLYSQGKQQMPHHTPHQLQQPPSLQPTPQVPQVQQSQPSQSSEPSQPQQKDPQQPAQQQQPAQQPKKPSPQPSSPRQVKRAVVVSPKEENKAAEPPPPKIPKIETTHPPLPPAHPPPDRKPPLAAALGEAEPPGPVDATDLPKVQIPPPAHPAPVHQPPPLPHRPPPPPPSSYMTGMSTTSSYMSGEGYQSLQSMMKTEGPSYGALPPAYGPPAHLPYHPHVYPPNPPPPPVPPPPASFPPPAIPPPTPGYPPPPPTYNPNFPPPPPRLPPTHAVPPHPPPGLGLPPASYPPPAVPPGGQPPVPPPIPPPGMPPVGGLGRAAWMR

Sequence of CDK12 (Q9NYV4 whole entry): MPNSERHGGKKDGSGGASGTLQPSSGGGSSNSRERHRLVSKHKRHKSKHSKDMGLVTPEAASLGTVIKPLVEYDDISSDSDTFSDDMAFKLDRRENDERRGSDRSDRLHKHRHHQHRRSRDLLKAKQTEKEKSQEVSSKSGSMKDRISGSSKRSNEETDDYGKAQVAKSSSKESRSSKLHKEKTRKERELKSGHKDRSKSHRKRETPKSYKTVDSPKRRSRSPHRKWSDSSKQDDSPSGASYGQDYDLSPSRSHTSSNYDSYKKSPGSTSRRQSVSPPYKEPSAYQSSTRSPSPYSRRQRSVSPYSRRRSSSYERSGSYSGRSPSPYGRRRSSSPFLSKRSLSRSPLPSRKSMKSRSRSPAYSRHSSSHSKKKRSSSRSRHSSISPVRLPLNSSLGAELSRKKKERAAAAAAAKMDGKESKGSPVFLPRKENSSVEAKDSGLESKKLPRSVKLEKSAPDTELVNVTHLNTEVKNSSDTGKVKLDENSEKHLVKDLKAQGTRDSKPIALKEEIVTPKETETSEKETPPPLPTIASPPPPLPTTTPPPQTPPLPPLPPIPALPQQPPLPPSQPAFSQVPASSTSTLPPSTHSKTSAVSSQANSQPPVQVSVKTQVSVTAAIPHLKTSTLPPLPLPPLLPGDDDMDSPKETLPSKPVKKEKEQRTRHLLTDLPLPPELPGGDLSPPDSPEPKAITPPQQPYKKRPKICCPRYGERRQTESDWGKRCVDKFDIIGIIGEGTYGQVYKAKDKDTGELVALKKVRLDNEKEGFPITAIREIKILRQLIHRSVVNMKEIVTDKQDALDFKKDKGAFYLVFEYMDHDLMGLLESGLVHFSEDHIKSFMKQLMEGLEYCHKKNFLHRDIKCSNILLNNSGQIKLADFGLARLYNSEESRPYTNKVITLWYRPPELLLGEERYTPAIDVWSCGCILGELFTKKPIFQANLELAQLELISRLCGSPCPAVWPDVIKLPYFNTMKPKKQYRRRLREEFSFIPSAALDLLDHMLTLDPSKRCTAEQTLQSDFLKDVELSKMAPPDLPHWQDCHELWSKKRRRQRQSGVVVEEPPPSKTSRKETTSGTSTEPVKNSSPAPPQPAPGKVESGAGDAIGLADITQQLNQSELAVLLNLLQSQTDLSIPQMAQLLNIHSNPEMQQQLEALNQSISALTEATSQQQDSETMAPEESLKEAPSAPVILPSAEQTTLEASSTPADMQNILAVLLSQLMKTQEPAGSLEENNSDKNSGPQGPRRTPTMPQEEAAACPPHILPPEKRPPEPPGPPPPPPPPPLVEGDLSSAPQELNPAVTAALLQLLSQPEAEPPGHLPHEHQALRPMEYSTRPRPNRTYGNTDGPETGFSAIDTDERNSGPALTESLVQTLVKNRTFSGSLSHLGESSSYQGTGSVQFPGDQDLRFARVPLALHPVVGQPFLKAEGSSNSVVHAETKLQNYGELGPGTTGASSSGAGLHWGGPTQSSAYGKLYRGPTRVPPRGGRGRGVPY
Sequence of CDK12 (O75909 whole entry partner): as the sequence (O75909 whole entry partner) above

DC50 (CDK12) | DC50 (CDK13) | Compound
< 100 nM | < 100 nM | CC(=O)N(c1ccc(-c2cnc(N3C[C@@H]4C[C@H]3CN4CC(=O)N[C@H](C(=O)N3C[C@H](O)C[C@H]3C(=O)N[C@@H](C)c3ccc(-c4scnc4C)cc3)C(C)(C)C)nc2)cc1)[C@H]1CC[C@H](Nc2ncc3ccccc3n2)CC1 [Formula 142, (2S,4R)-1-((S)-3,3-dimethyl-2-(2-((1S,4S)-5-(5-(4-(N-((1R,4S)-4-(quinazolin-2-ylamino)cyclohexyl)acetamido)phenyl)pyrimidin-2-yl)-2,5-diazabicyclo[2.2.1]heptan-2-yl)acetamido)butanoyl)-4-hydroxy-N—((S)-1-(4-(4-methylthiazol-5-yl)phenyl)ethyl)pyrrolidine-2-carboxamide]
1000 to 3000 nM | 500 to 1000 nM | CC(=O)N(c1ccc(N2CCN(C(=O)/C=C/c3ccc4c(c3)C(=O)N(C3CCC(=O)NC3=O)C4=O)CC2)cc1)[C@H]1CC[C@H](Nc2ncc3ccccc3n2)CC1 (stereo partly drawn) [Formula 118, N-(4-(4-((E)-3-(2-(2,6-dioxopiperidin-3-yl)-1,3-dioxoisoindolin-5-yl)acryloyl)piperazin-1-yl)phenyl)-N-((1R,4R)-4-(quinazolin-2-ylamino)cyclohexyl)acetamide]
1000 to 3000 nM | 3000 to 10000 nM | CC(=O)N(c1ccc(N2CCN(CC3CCN(c4ccc5c(c4)C(=O)N(C4CCC(=O)NC4=O)C5=O)C3)CC2)cc1)[C@H]1CC[C@H](Nc2ncc3ccccc3n2)CC1 (stereo partly drawn) [Formula 126, N-(4-(4-((1-(2-(2,6-dioxopiperidin-3-yl)-1,3-dioxoisoindolin-5-yl)pyrrolidin-3-yl)methyl)piperazin-1-yl)phenyl)-N-((1R,4R)-4-(quinazolin-2-ylamino)cyclohexyl)acetamide]
< 100 nM | < 100 nM | CC(=O)N(c1ccc(-c2ccc(N3CCN(c4cc(C(C(=O)N5C[C@H](O)C[C@H]5C(=O)N[C@@H](C)c5ccc(-c6scnc6C)cc5)C(C)C)on4)CC3)nc2)cc1)[C@H]1CC[C@@H](Nc2ncc3ccccc3n2)CC1 (single isomer, unassigned) [Formula 155]
3000 to 10000 nM | 3000 to 10000 nM | CC(=O)N(c1ccc(-c2cnc(N3CCN(C(=O)N[C@H](C(=O)N4C[C@H](O)C[C@H]4C(=O)N[C@@H](C)c4ccc(-c5scnc5C)cc4)C(C)(C)C)CC3)nc2)cc1)[C@H]1CC[C@H](Nc2ncc3ccccc3n2)CC1 [Formula 146, N—((S)-1-((2S,4R)-4-hydroxy-2-(((S)-1-(4-(4-methylthiazol-5-yl)phenyl)ethyl)carbamoyl)pyrrolidin-1-yl)-3,3-dimethyl-1-oxobutan-2-yl)-4-(5-(4-(N-((1R,4R)-4-(quinazolin-2-ylamino)cyclohexyl)acetamido)phenyl)pyrimidin-2-yl)piperazine-1-carboxamide]
100 to 500 nM | 100 to 500 nM | CC(=O)N(c1ccc(-c2ccc(N3CCN(c4cnn([C@H](C(=O)N5C[C@H](O)C[C@H]5C(=O)N[C@@H](C)c5ccc(-c6scnc6C)cc5)C(C)C)c4)CC3)nc2)cc1)[C@H]1CC[C@H](Nc2ncc3ccccc3n2)CC1 [Formula 152, (2S,4R)-4-hydroxy-1-((S)-3-methyl-2-(4-(4-(5-(4-(N-((1R,4R)-4-(quinazolin-2-ylamino)cyclohexyl)acetamido)phenyl)pyridin-2-yl)piperazin-1-yl)-1H-pyrazol-1-yl)butanoyl)-N—((S)-1-(4-(4-methylthiazol-5-yl)phenyl)ethyl)pyrrolidine-2-carboxamide]
500 to 1000 nM | 100 to 500 nM | CC(=O)N(c1ccc(-c2ccc(OCC3CCN(CC(=O)N[C@H](C(=O)N4C[C@H](O)C[C@H]4C(=O)N[C@@H](C)c4ccc(-c5scnc5C)cc4)C(C)(C)C)CC3)nc2)cc1)[C@H]1CC[C@H](Nc2ncc3ccccc3n2)CC1 [Formula 133, (2S,4R)-1-((S)-3,3-dimethyl-2-(2-(4-(((5-(4-(N-((1R,4R)-4-(quinazolin-2-ylamino)cyclohexyl)acetamido)phenyl)pyridin-2-yl)oxy)methyl)piperidin-1-yl)acetamido)butanoyl)-4-hydroxy-N—((S)-1-(4-(4-methylthiazol-5-yl)phenyl)ethyl)pyrrolidine-2-carboxamide]
3000 to 10000 nM | 3000 to 10000 nM | CC(=O)N(c1ccc(-c2ccc(C(=O)N[C@H]3CCC(=O)NC3=O)nc2)cc1)[C@H]1CC[C@H](Nc2ncc3ccccc3n2)CC1 [Formula 129, N—((S)-2,6-dioxopiperidin-3-yl)-5-(4-(N-((1R,4S)-4-(quinazolin-2-ylamino)cyclohexyl)acetamido)phenyl)pyridinecarboxamide]
500 to 1000 nM | 500 to 1000 nM | CC(=O)N(c1ccc(N2CCN(CC3CN(c4ccc5c(c4)C(=O)N(C4CCC(=O)NC4=O)C5=O)C3)CC2)cc1)[C@H]1CC[C@H](Nc2ncc3ccccc3n2)CC1 (stereo partly drawn) [Formula 127, N-(4-(4-((1-(2-(2,6-dioxopiperidin-3-yl)-1,3-dioxoisoindolin-5-yl)azetidin-3-yl)methyl)piperazin-1-yl)phenyl)-N-((1R,4R)-4-(quinazolin-2-ylamino)cyclohexyl)acetamide]
< 100 nM | 100 to 500 nM | CC(=O)N(c1ccc(-c2ccc(N3C[C@@H]4C[C@H]3CN4CC(=O)N[C@H](C(=O)N3C[C@H](O)C[C@H]3C(=O)N[C@@H](C)c3ccc(-c4scnc4C)cc3)C(C)(C)C)nc2)cc1)[C@H]1CC[C@H](Nc2ncc3ccccc3n2)CC1 [Formula 141, (2S,4R)-1-((S)-3,3-dimethyl-2-(2-((1S,4S)-5-(5-(4-(N-((1R,4S)-4-(quinazolin-2-ylamino)cyclohexyl)acetamido)phenyl)pyridin-2-yl)-2,5-diazabicyclo[2.2.1]heptan-2-yl)acetamido)butanoyl)-4-hydroxy-N—((S)-1-(4-(4-methylthiazol-5-yl)phenyl)ethyl)pyrrolidine-2-carboxamide]
3000 to 10000 nM | 3000 to 10000 nM | CC(=O)N(c1ccc(-c2ccc(N3CCC(C(=O)N[C@H](C(=O)N4C[C@H](O)C[C@H]4C(=O)N[C@@H](C)c4ccc(-c5scnc5C)cc4)C(C)(C)C)CC3)nc2)cc1)[C@H]1CC[C@H](Nc2ncc3ccccc3n2)CC1 [Formula 137, N—((S)-1-((2S,4R)-4-hydroxy-2-(((S)-1-(4-(4-methylthiazol-5-yl)phenyl)ethyl)carbamoyl)pyrrolidin-1-yl)-3,3-dimethyl-1-oxobutan-2-yl)-1-(5-(4-(N-((1R,4R)-4-(quinazolin-2-ylamino)cyclohexyl)acetamido)phenyl)pyridin-2-yl)piperidine-4-carboxamide]
3000 to 10000 nM | 3000 to 10000 nM | CC(=O)N(c1ccc(-c2cnn(C3CCN(c4ccc5c(c4)C(=O)N(C4CCC(=O)NC4=O)C5=O)C3)c2)cc1)[C@H]1CC[C@H](Nc2ncc3ccccc3n2)CC1 (stereo partly drawn) [Formula 116, N-(4-(1-(1-(2-(2,6-dioxopiperidin-3-yl)-1,3-dioxoisoindolin-5-yl)pyrrolidin-3-yl)-1H-pyrazol-4-yl)phenyl)-N-((1R,4R)-4-(quinazolin-2-ylamino)cyclohexyl)acetamide]
100 to 500 nM | 100 to 500 nM | CC(=O)N(c1ccc(-c2cnc(O[C@@H]3CCN(c4ccc5c(c4)C(=O)N(C4CCC(=O)NC4=O)C5=O)C3)nc2)cc1)[C@H]1CC[C@H](Nc2ncc3ccccc3n2)CC1 (stereo partly drawn) [Formula 109, N-(4-(2-(((3R)-1-(2-(2,6-dioxopiperidin-3-yl)-1,3-dioxoisoindolin-5-yl)pyrrolidin-3-yl)oxy)pyrimidin-5-yl)phenyl)-N-((1R,4R)-4-(quinazolin-2-ylamino)cyclohexyl)acetamide]

Reference: US20260327204A1, “DEGRADERS OF CYCLIN-DEPENDENT KINASE 12/13, COMPOSITIONS, AND USES THEREOF” (ZHEJIANG UNIVERSITY, priority 2023, published 2026)
